Assay results: PubChem BioAssay (NCI)
Several values for one entry are separate records, joined by “and”; a condition that tells them apart may be missing. Identical values can stand only once.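 Where inhibition never reached the appropriate level, the endpoint shown equals the highest concentration tested. Otherwise, values were interpolated linearly from a five-concentration, 48-hour dose response in 96-well plates. GI50: concentration for 50% inhibition of growth. TGI marks complete inhibition of growth.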

Columns and labels:
Experiment in all cases: growth of human tumour cells (NCI), 48 h
[1] = test system: BT-549 breast
[2] = test system: T-47D breast
[3] = test system: NCI/ADR-RES ovarian
[4] = test system: HS 578T breast
[5] = test system: SF-268 CNS
[6] = test system: UO-31 renal
[7] = test system: SW-620 colon
[8] = test system: A549 NSCLC

Row | Structure (SMILES) | GI50 [1] | TGI [1] | GI50 [2] | TGI [2] | GI50 [3] | TGI [3] | GI50 [4] | TGI [4] | GI50 [5] | TGI [5] | GI50 [6] [µM] | TGI [6] [µM] | GI50 [7] | TGI [7] | GI50 [8] | TGI [8] [µM]
1 | Nc1ncn([C@H]2C[C@H](OP(=O)(O)OC[C@H]3O[C@@H](n4cnc5c(=O)[nH]c(N)nc54)C[C@@H]3O)[C@@H](CO)O2)c(=O)n1 | > 100 µM | > 100 µM | > 100 µM | > 100 µM | > 100 µM | > 100 µM | > 100 µM | > 100 µM | > 100 µM | > 100 µM | > 100 | > 100 | > 100 µM | > 100 µM | 82.9 µM | > 100
2 | NC(N)=N/N=C/c1c(-c2cccnc2)nc2sc(Cl)cn12 | 16.3 µM | 32.4 µM | – | – | 52.2 µM | > 100 µM | 22.3 µM | 46.6 µM | 20.7 µM | 52.7 µM | 33.8 | > 100 | 6.13 µM | 20.7 µM | 18.7 µM | 40.1
3 | O=C1c2c(Cl)c(Cl)c(Cl)c(Cl)c2C(=O)C2(Cl)CC=CCC12Cl (stereo not drawn) | 1.85 µM | 3.38 µM | 1.74 µM | 4.01 µM | 3.41 µM | 13.2 µM | 2.04 µM | 5.88 µM | 1.76 µM | 3.2 µM | 1.71 | 3.28 | 1.49 µM | 3.08 µM | 4.28 µM | 16.3
4 | COc1cc(CCNC(=O)OC(C)(C)C)c2c(c1OC)SSSSS2 | 2.54 µM | 5.06 µM | 2.77 µM | 5.92 µM | 3.64 µM | 70.2 µM | 3.79 µM | 32.6 µM | 1.87 µM | 4.04 µM | 2.18 | 5.47 | 2.8 µM | 7.69 µM | 3.36 µM | 10.2
5 | O=c1oc2ccc(Br)cc2c(=O)n1-c1ccc(Cl)cc1F | 0.48 µM | 2.49 µM | 0.597 µM | 5.65 µM | 1.41 µM | 6.95 µM | 0.553 µM | 5.69 µM | 0.917 µM | 9.23 µM | 0.349 | 3.03 | 1.84 µM | 11.2 µM | 2.9 µM | > 94.8
6 | CC(=O)OCC1OC(n2ncc(=O)[nH]c2=O)C(OC(C)=O)C1OC(C)=O (stereo not drawn) | – | – | – | > 100 µM | – | > 100 µM | – | > 100 µM | – | > 100 µM | – | – | – | > 100 µM | – | > 100
7 | NC(=O)c1cc(Br)ccc1NC(=O)/C=C/c1ccccc1 | 4.97 µM | 28.7 µM | 3.51 µM | > 100 µM | – | – | 1.09 µM | 6.27 µM | 2.85 µM | > 39.4 µM | 3.37 | > 100 | 0.986 µM | > 100 µM | 2.39 µM | > 100
8 | O=C(c1ccccc1)c1nc2ccc(C(F)(F)F)cc2nc1N1CCN(c2ccccc2)CC1 | 32 µM | 84.5 µM | 21.8 µM | 48.9 µM | 34.2 µM | > 100 µM | 65 µM | > 100 µM | 48 µM | > 100 µM | 31.7 | > 100 | 34.7 µM | > 100 µM | > 100 µM | > 100
9 | CN1CCN(CCCN2c3ccccc3Sc3ccc(Cl)cc32)CC1 | 6.56 µM | 13.4 µM | 5.72 µM and 35.5 µM | 13 µM and 62.6 µM | 6 µM and 44.5 µM | 12.8 µM and 78.6 µM | – | 13.5 µM and 83.2 µM | 5.27 µM | 12 µM | – | 9.49 | 5.72 µM and 41.8 µM | 12 µM and 62.5 µM | 6.5 µM and 56.8 µM | 13.7
10 | O=C1CC(CC(OCc2ccccc2)C(OCc2ccccc2)C(COCc2ccccc2)OCc2ccccc2)CC(=O)N1 (stereo not drawn) | > 100 µM and 12.6 µM | > 100 µM and 25.3 µM | – | – | > 100 µM and 12.8 µM | > 100 µM | > 100 µM and 16.5 µM | > 100 µM and 33.9 µM | > 100 µM and 11.2 µM | > 100 µM and 65.3 µM | – | – | > 100 µM and 11.7 µM | > 100 µM and 23.9 µM | – | > 100
11 | C/C=C(\C)C(=O)O[C@H]1C=CC(=O)O[C@H]1COC(=O)[C@H](C)O | 9.56 µM | 21.7 µM | 3.81 µM | 19.2 µM | 12.1 µM | 32.6 µM | 7.37 µM | 26 µM | 4.32 µM | 17.6 µM | 9.79 | 25.5 | 4.28 µM | 15.1 µM | 15.5 µM | 35.3
12 | COc1cc(CCC(=O)NC[C@@H](O)c2ccccc2)ccc1O | > 100 µM | > 100 µM | > 100 µM | > 100 µM | – | – | – | – | > 100 µM | > 100 µM | > 100 | > 100 | > 100 µM | > 100 µM | > 100 µM | > 100
13 | CCOC(=O)c1cc(NS(=O)(=O)c2ccc(C)cc2)cc(C(=O)OCC)c1 | 34.8 µM | > 100 µM | 21.1 µM | 83.6 µM | 23.6 µM | > 100 µM | 26.4 µM | 69.9 µM | 40.4 µM | > 100 µM | 39.1 | > 100 | > 100 µM | > 100 µM | 41.4 µM | > 100
14 | CC1(C)CCC(C)(C)c2cc(NC(=O)c3ccc(C(=O)O)cc3)ccc21 | – | 68.1 µM | – | > 100 µM | – | > 86.1 µM | – | > 83.5 µM | – | > 100 µM | – | 39.5 | – | > 100 µM | – | > 100
15 | C=CC(=O)N1CC[C@H](n2nc(C#Cc3cc(OC)cc(OC)c3)c3c(N)ncnc32)C1 | 1.05 µM | 9.56 µM | 5.22 µM | > 100 µM | 12.7 µM | > 100 µM | 1.71 µM | 9.82 µM | 4.19 µM | > 100 µM | 1.32 | > 100 | 15 µM | > 100 µM | 9.78 µM | > 100
16 | Cc1cccc(Cl)c1NC(=O)c1cnc(Nc2cc(N3CCOCC3)cc(S(C)(=O)=O)c2)s1 | 9.75 µM | > 10 µM | 0.292 µM | > 10 µM | 9.94 µM | > 10 µM | 0.138 µM | 0.826 µM | 0.354 µM | > 10 µM | 0.199 | > 6.98 | > 10 µM | > 10 µM | 2.16 µM | > 10
